Measurements taken from ChEMBL document CHEMBL2150850, “Recent advances in the development of selective human MAO-B inhibitors: (hetero)arylidene-(4-substituted-thiazol-2-yl)hydrazines” (Eur J Med Chem, 2012).

What was measured:
Homo sapiens = species: Homo sapiens; test: Selectivity ratio of IC50 for human MAO-A to IC50 for human MAO-B
[1] = molecular target: T1, Amine oxidase [flavin-containing] B (Homo sapiens, UniProt P27338); test: biochemical; format: cell-based, BTI-TN-5B1-4
T1 sequence (P27338 whole entry): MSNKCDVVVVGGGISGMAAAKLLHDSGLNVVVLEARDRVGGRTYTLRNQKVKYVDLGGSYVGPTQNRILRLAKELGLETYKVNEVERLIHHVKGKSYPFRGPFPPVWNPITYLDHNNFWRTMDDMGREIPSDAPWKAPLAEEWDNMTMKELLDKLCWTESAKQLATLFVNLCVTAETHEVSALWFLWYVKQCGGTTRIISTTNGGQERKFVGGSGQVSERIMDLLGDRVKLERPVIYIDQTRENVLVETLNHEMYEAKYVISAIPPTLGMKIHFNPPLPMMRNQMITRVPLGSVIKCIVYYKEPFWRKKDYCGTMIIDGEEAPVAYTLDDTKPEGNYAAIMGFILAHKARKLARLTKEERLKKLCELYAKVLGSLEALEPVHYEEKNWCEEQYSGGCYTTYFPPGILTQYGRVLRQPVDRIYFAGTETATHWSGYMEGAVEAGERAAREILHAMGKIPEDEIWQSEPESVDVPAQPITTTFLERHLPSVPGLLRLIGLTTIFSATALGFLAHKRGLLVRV
Description: Inhibition of human MAO-B expressed in baculovirus infected BTI-TN-5B1-4 cells using p-tyramine as substrate incubated for 15 mins prior to substrate addition measured for 15 mins by Amplex red assay

[2] = molecular target: T2, Amine oxidase [flavin-containing] A (Homo sapiens, UniProt P21397); test: Inhibition of human MAO-A expressed in baculovirus infected BTI-TN-5B1-4 cells using p-tyramine as substrate at 100 uM incubated for 15 mins prior to substrate addition measured for 15 mins by Amplex red assay; conditions: for inhibition at 100 µM: BTI-TN-5B1-4, human, 0.25 h; for inhibition (INH): human, bti-tn-5b1-4, 0.25 h, 100 µM
T2 sequence (P21397 whole entry): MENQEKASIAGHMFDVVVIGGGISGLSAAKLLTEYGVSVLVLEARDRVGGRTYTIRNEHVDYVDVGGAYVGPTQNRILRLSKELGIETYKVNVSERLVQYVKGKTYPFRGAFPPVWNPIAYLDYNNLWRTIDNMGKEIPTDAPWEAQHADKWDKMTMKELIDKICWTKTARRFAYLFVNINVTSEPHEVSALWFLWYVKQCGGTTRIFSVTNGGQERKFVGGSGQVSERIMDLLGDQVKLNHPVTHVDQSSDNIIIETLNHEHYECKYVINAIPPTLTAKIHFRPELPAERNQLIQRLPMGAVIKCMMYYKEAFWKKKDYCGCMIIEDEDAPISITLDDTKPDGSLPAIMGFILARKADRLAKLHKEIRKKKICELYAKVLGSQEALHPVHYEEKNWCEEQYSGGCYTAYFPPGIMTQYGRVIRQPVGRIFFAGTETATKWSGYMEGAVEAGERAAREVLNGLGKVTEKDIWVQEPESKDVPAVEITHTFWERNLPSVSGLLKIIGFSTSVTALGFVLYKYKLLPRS

[3] = molecular target: T2, Amine oxidase [flavin-containing] A; test: Inhibition of human MAO-A expressed in baculovirus infected BTI-TN-5B1-4 cells using p-tyramine as substrate incubated for 15 mins prior to substrate addition measured for 15 mins by Amplex red assay
[4] = molecular target: T1, Amine oxidase [flavin-containing] B; test: Inhibition of human MAO-B expressed in baculovirus infected BTI-TN-5B1-4 cells using p-tyramine as substrate at 100 uM incubated for 15 mins prior to substrate addition measured for 15 mins by Amplex red assay; conditions: for inhibition (INH): human, bti-tn-5b1-4, 0.25 h, 100 µM; for inhibition at 100 µM: BTI-TN-5B1-4, human, 0.25 h

Row | Ratio IC50 (Homo sapiens) | IC50 [1] [nM] | inhibition at 100 µM [2] [%] | IC50 [3] [nM] | inhibition (INH) [2] | inhibition (INH) [4] | inhibition at 100 µM [4] [%] | Structure (SMILES)
1 | > 5430 | 18.4 | 40 |  |  |  |  | C/C(=N/Nc1nc(-c2ccc(F)cc2F)cs1)c1cccnc1
2 | 294 | 153 |  | 45000 |  |  |  | N#Cc1ccc(-c2csc(N/N=C\c3cccs3)n2)cc1
3 | > 93 | 1080 | 40 |  |  |  |  | Fc1ccc(-c2csc(N/N=C\c3ccc4c(c3)OCO4)n2)cc1
4 | 6.2 | 1210 |  | 7550 |  |  |  | C/C(=N/Nc1nc(-c2ccc(F)cc2)cs1)c1nccs1
5 |  |  |  |  | Not Active | Not Active |  | C/C(=N/Nc1nc(-c2ccc([N+](=O)[O-])cc2)cs1)c1cc2ccccc2oc1=O
6 | > 5990 | 16.7 | 40 |  |  |  |  | C/C(=N/Nc1nc(-c2ccc(F)cc2F)cs1)c1ccncc1
7 | > 32 | 3110 | 40 |  |  |  |  | C/C(=N/Nc1nc(-c2ccc(C#N)cc2)cs1)c1cccs1
8 |  |  | 40 |  |  |  | 40 | C/C(=N/Nc1nc(-c2ccc(C#N)cc2)cs1)c1ccccc1
9 |  |  | 40 |  |  |  | 40 | O=[N+]([O-])c1ccc(-c2csc(N/N=C\c3cccs3)n2)cc1
10 |  |  |  |  | Not Active | Not Active |  | O=[N+]([O-])c1ccc(-c2csc(N/N=C\c3cccnc3)n2)cc1
11 | > 7.8 | 12800 | 40 |  |  |  |  | Fc1ccc(-c2csc(N/N=C\c3cccc4ccccc34)n2)cc1
12 | > 70 | 1420 |  |  | Not Active |  |  | C/C(=N/Nc1nc(-c2ccc(F)cc2F)cs1)c1cc2ccccc2oc1=O
13 |  |  |  |  | Not Active |  | 40 | C/C(=N/Nc1nc(-c2ccc(C#N)cc2)cs1)c1ccc2ccccc2c1
14 | > 33200 | 3.01 | 40 |  |  |  |  | C/C(=N/Nc1nc(-c2ccc(F)cc2F)cs1)c1cccs1
15 | > 106 | 947 | 40 |  |  |  |  | N#Cc1ccc(-c2csc(N/N=C\c3cccnc3)n2)cc1
16 | > 131 | 762 |  |  | Not Active |  |  | N#Cc1ccc(-c2csc(N/N=C\c3c[nH]c4ccccc34)n2)cc1
17 | > 727 | 138 | 40 |  |  |  |  | Fc1ccc(-c2csc(N/N=C\c3cccc4ccccc34)n2)c(F)c1
18 | > 890 | 112 | 40 |  |  |  |  | Fc1ccc(-c2csc(N/N=C\c3ccncc3)n2)cc1
19 | 421 | 13 |  | 5460 |  |  |  | C/C(=N/Nc1nc(-c2ccc(F)cc2F)cs1)c1nccs1
20 | > 47800 | 2.09 | 40 |  |  |  |  | C/C(=N/Nc1nc(-c2ccc(C#N)cc2)cs1)c1cccnc1
21 | > 295 | 338 | 40 |  |  |  |  | Fc1ccc(-c2csc(N/N=C\c3cccs3)n2)cc1
22 |  |  |  |  | Not Active | Not Active |  | O=[N+]([O-])c1ccc(-c2csc(N/N=C\c3ccncc3)n2)cc1
23 |  |  | 40 |  |  |  | 40 | C/C(=N/Nc1nc(-c2ccc([N+](=O)[O-])cc2)cs1)c1ccccc1

More lines, now with the values behind:

Row | Structure (SMILES) | Ratio IC50 (Homo sapiens) | IC50 [1] [nM] | inhibition at 100 µM [2] [%] | IC50 [3] [nM] | inhibition (INH) [2] | inhibition (INH) [4] | inhibition at 100 µM [4] [%]
24 | C/C(=N/Nc1nc(-c2ccc(F)cc2)cs1)c1ccncc1 | > 39400 | 2.54 | 40 |  |  |  | 
25 | Fc1ccc(-c2csc(N/N=C\c3cccs3)n2)c(F)c1 | > 6030 | 16.6 | 40 |  |  |  | 
26 | Fc1ccc(-c2csc(N/N=C\c3ccco3)n2)cc1 | > 153 | 653 | 40 |  |  |  | 
27 | C/C(=N/Nc1nc(-c2ccc([N+](=O)[O-])cc2)cs1)c1ccco1 |  | 3590 | 40 |  |  |  | 
28 | Fc1ccc(-c2csc(N/N=C\c3ccco3)n2)c(F)c1 | 42 | 217 |  | 9110 |  |  | 
29 | C/C(=N/Nc1nc(-c2ccc([N+](=O)[O-])cc2)cs1)c1ccccn1 | 1450 | 26.7 |  | 38700 |  |  | 
30 | C/C(=N/Nc1nc(-c2ccc(F)cc2F)cs1)c1ccccc1 | 235 | 90.3 |  | 21200 |  |  | 
31 | Fc1ccc(-c2csc(N/N=C\c3c[nH]c4ccccc34)n2)cc1 | > 173 | 578 | 40 |  |  |  | 
32 | Fc1ccc(-c2csc(N/N=C\c3cccnc3)n2)cc1 | > 207 | 482 | 40 |  |  |  | 
33 | O=[N+]([O-])c1ccc(-c2csc(N/N=C\c3cccc4ccccc34)n2)cc1 |  |  |  |  | Not Active | Not Active | 
34 | Fc1ccc(-c2csc(N/N=C\c3ccncc3)n2)c(F)c1 | > 182 | 549 |  |  | Not Active |  | 
35 | Fc1ccc(-c2csc(N/N=C\c3ccc4c(c3)OCO4)n2)c(F)c1 | > 85 | 1170 | 40 |  |  |  | 
36 | N#Cc1ccc(-c2csc(N/N=C\c3cccc4ccccc34)n2)cc1 | > 91 | 1100 | 40 |  |  |  | 
37 | C/C(=N/Nc1nc(-c2ccc(C#N)cc2)cs1)c1nccs1 | 1.4 | 2000 |  | 2850 |  |  | 
38 | Fc1ccc(-c2csc(N/N=C\c3cccnc3)n2)c(F)c1 | > 504 | 199 | 40 |  |  |  | 
39 | C/C(=N/Nc1nc(-c2ccc(C#N)cc2)cs1)c1ccncc1 | 44 | 436 |  | 19100 |  |  | 
40 | C/C(=N/Nc1nc(-c2ccc(C#N)cc2)cs1)c1cc2ccccc2oc1=O |  |  |  |  | Not Active | Not Active | 

Row | Structure (SMILES) | Ratio IC50 (Homo sapiens) | IC50 [1] [nM] | inhibition at 100 µM [2] [%] | IC50 [3] [nM] | inhibition (INH) [2] | inhibition (INH) [4] | inhibition at 100 µM [4] [%]
41 | C/C(=N/Nc1nc(-c2ccc(C#N)cc2)cs1)c1ccccn1 | 2.9 | 996 |  | 2850 |  |  | 
42 | Fc1ccc(-c2csc(N/N=C\c3c[nH]c4ccccc34)n2)c(F)c1 | 29 | 529 |  | 15300 |  |  | 
43 | C/C(=N/Nc1nc(-c2ccc(C#N)cc2)cs1)c1ccco1 |  |  | 40 |  |  |  | 40
44 | N#Cc1ccc(-c2csc(N/N=C\c3ccc4c(c3)OCO4)n2)cc1 | > 332 | 301 | 40 |  |  |  | 
45 | O=[N+]([O-])c1ccc(-c2csc(N/N=C\c3c[nH]c4ccccc34)n2)cc1 |  |  |  |  | Not Active | Not Active | 
46 | C/C(=N/Nc1nc(-c2ccc([N+](=O)[O-])cc2)cs1)c1cccs1 |  | 298 |  |  | Not Active |  | 
47 | O=C(NCCN1CCOCC1)c1ccc(Cl)cc1 [MOCLOBEMIDE] |  |  |  |  |  | Not Active | 
48 | C/C(=N/Nc1nc(-c2ccc([N+](=O)[O-])cc2)cs1)c1nccs1 | 24 | 366 |  | 8970 |  |  | 
49 | C/C(=N/Nc1nc(-c2ccc(F)cc2F)cs1)c1ccco1 | > 2490 | 40.1 | 40 |  |  |  | 
50 | C/C(=N/Nc1nc(-c2ccc([N+](=O)[O-])cc2)cs1)c1cccnc1 |  |  |  |  | Not Active | Not Active | 
51 | C/C(=N/Nc1nc(-c2ccc(F)cc2F)cs1)c1ccc2ccccc2c1 |  |  |  |  | Not Active |  | 40
52 | C/C(=N/Nc1nc(-c2ccc(F)cc2)cs1)c1cccs1 | > 6460 | 15.5 | 40 |  |  |  | 
53 | O=[N+]([O-])c1ccc(-c2csc(N/N=C\c3ccc4c(c3)OCO4)n2)cc1 |  |  |  |  | Not Active | Not Active | 
54 | C/C(=N/Nc1nc(-c2ccc(F)cc2)cs1)c1cc2ccccc2oc1=O |  |  |  |  | Not Active | Not Active | 
55 | C/C(=N/Nc1nc(-c2ccc([N+](=O)[O-])cc2)cs1)c1ccncc1 | > 7620 | 13.1 |  |  | Not Active |  | 
56 | N#Cc1ccc(-c2csc(N/N=C\c3ccco3)n2)cc1 | > 67 | 1490 | 40 |  |  |  | 
57 | O=[N+]([O-])c1ccc(-c2csc(N/N=C\c3ccco3)n2)cc1 |  |  | 40 |  |  |  | 40
